# Data published in PMC10484922, “Discovery of a selective and biologically active low-molecular weight antagonist of human interleukin-1β” (Nature Communications, 2023).
# Where “and” joins values, the source holds several entries; their conditions need not be identical. Equal values may be shown once. Entries after “also recorded” stand apart in the source; their conditions may differ.
# What was measured:
# [1] = system: normal human dermal fibroblasts stimulated with hIL-1β; test: Human fibroblast IL-6 release assay, hIL-1β stimulated; assay type: cell-based; design: IL-6, average / inhibition, replicates of EXP1, EXP2, EXP3 / inhibition, Mean / IL-1beta (mean, SD): mean readout (IL-6 release): unit not given here; settings: for % Inhibition (EXP1-EXP3, single experiments) / % Inhibition, Mean: Figure 3b; for % Inhibition, Mean: mean of 3 experiments; for Mean OD (OD 450nm) / IL-1beta (mean, SD): mean readout (IL-6 release): Figure 3c; for Mean OD (OD 450nm): compound 1 nM; for IL-1beta (mean, SD): mean readout (IL-6 release): compound @ 1nM
# Description: (§1) We used HEK-Blue™ IL-1β cells that respond specifically to IL-1 (# hkb-il1b, InvivoGen). These cells can detect IL-1α and IL-1β, as these cytokines bind to the same receptor, IL-1R1. They express a Seap reporter gene under the control of the IFN-β minimal promoter fused to five NF-kappaB and five AP-1 binding sites. Thirty microliters (300,000 cells/ml) per well of a 384-well plate were plated overnight. Cells were then stimulated with graded concentrations of cytokines (hIL-1α or hIL-1β) in the absence or presence of canakinumab (Ilaris®, ILARI LYVI 150MG 22GLW.012, batch U003 0409)[22], anakinra (Kineret®, 100 mg/0.67 ml injectable solution, Sobi)[23], or compound (S)-2 (compounds were pre-mixed for 1 h with the cytokine prior to addition to cells) and further incubated overnight before assessment of Seap activity.
# Normal human dermal fibroblasts (NHDF) from Clonetics^TM (LONZA, Cat # CC-2509 (NHDF-Neo), Lot # 0000234242, used at passage ≤14) were seeded at a density of 5000 cells/well in 100 μL of culture medium using 96-well plates (flat bottom, TCT). Treatment with cytokines/compounds was performed as described above. Cells were incubated for another 6 h and were subsequently spun down (320g/3 min). IL-6 was measured in the supernatant by ELISA (BioLegend, # 430503) or HTRF (Cisbio, #62HIL06PEH).
# [2] = system: HEK-Blue IL-1β cells stimulated with hIL-1β; test: HEK293 reporter gene assay, hIL-1β as trigger; assay type: cell-based, human; settings: inhibitor 3nM
# Description: as §1
# [3] = system: HEK-Blue IL-1β cells stimulated with hIL-1α; test: HEK293 reporter gene assay, hIL-1α as trigger; assay type: cell-based, human; settings: inhibitor 3nM
# Description: as §1
# [4] = Canakinumab concentration 0.00457247 (unit not given)
# [5] = Canakinumab concentration 0.0137174 (unit not given)
# [6] = Canakinumab concentration 0.0411523 (unit not given)
# [7] = Canakinumab concentration 0.123457 (unit not given)
# [8] = Canakinumab concentration 0.37 (unit not given)
# [9] = Canakinumab concentration 1.11 (unit not given)
# [10] = Canakinumab concentration 3.33 (unit not given)
substance,measurement,setting,value
canakinumab: anti-hIL-1β antibody [reference compound],block of hIL-1β driven IL-6 release,[1],fully blocked; also recorded: selectively inhibited IL-1β driven activity
same,"% Inhibition (EXP1-EXP3, single experiments)",[1]; [4],15.5% and 11.1% and 14.6%
same,"% Inhibition, Mean",[1]; [4],13.7%
same,"% Inhibition (EXP1-EXP3, single experiments)",[1]; [5],23.7% and 27.7% and 26.5%
same,"% Inhibition, Mean",[1]; [5],26%
same,"% Inhibition (EXP1-EXP3, single experiments)",[1]; [6],29% and 29.6% and 31.5%
same,"% Inhibition, Mean",[1]; [6],30%
same,"% Inhibition (EXP1-EXP3, single experiments)",[1]; [7],46.1% and 41.8% and 58.9%
same,"% Inhibition, Mean",[1]; [7],48.9%
same,"% Inhibition (EXP1-EXP3, single experiments)",[1]; [8],71.6% and 66.1% and 70.6%
same,"% Inhibition, Mean",[1]; [8],69.4%
same,"% Inhibition (EXP1-EXP3, single experiments)",[1]; [9],91.2% and 93.8% and 92.3%
same,"% Inhibition, Mean",[1]; [9],92.4%
same,"% Inhibition (EXP1-EXP3, single experiments)",[1]; [10],99.3% and 99.2% and 98.7%
same,"% Inhibition, Mean",[1]; [10],99%
same,Mean OD (OD 450nm),[1]; hu IL-1b 0 pg/mL,0.033
same,"IL-1beta (mean, SD): mean readout (IL-6 release)",[1]; hu IL-1b 0 pg/mL,0
same,Mean OD (OD 450nm),[1]; hu IL-1b 40 pg/mL,0.046
same,"IL-1beta (mean, SD): mean readout (IL-6 release)",[1]; hu IL-1b 40 pg/mL,0
same,Mean OD (OD 450nm),[1]; hu IL-1b 80 pg/mL,0.099
same,"IL-1beta (mean, SD): mean readout (IL-6 release)",[1]; hu IL-1b 80 pg/mL,0
same,Mean OD (OD 450nm),[1]; hu IL-1b 120 pg/mL,0.15
same,"IL-1beta (mean, SD): mean readout (IL-6 release)",[1]; hu IL-1b 120 pg/mL,353.7
same,Mean OD (OD 450nm),[1]; hu IL-1b 160 pg/mL,0.229
same,"IL-1beta (mean, SD): mean readout (IL-6 release)",[1]; hu IL-1b 160 pg/mL,936.8
same,Mean OD (OD 450nm),[1]; hu IL-1b 200 pg/mL,0.252
same,"IL-1beta (mean, SD): mean readout (IL-6 release)",[1]; hu IL-1b 200 pg/mL,1110.8
same,"reporter gene assay signal, mean (Figure 3d)",[2]; IL-1beta 3.04596 pg/ml,0.06
same,"reporter gene assay signal, mean (Figure 3d)",[2]; IL-1beta 6.09192 pg/ml,0.06
same,"reporter gene assay signal, mean (Figure 3d)",[2]; IL-1beta 12.1838 pg/ml,0.06
same,"reporter gene assay signal, mean (Figure 3d)",[2]; IL-1beta 24.3677 pg/ml,0.06
same,"reporter gene assay signal, mean (Figure 3d)",[2]; IL-1beta 48.7353 pg/ml,0.06
same,"reporter gene assay signal, mean (Figure 3d)",[2]; IL-1beta 97.4707 pg/ml,0.07
same,"reporter gene assay signal, mean (Figure 3d)",[2]; IL-1beta 194.941 pg/ml,0.08
same,"reporter gene assay signal, mean (Figure 3d)",[2]; IL-1beta 389.883 pg/ml,0.1
same,"reporter gene assay signal, mean (Figure 3d)",[2]; IL-1beta 779.766 pg/ml,0.2
same,"reporter gene assay signal, mean (Figure 3d)",[2]; IL-1beta 1559.53 pg/ml,0.42
same,"reporter gene assay signal, mean (Figure 3d)",[2]; IL-1beta 3119.06 pg/ml,0.74
same,"reporter gene assay signal, mean (Figure 3d)",[2]; IL-1beta 6238.12 pg/ml,1.18
same,"reporter gene assay signal, mean (Figure 3d)",[2]; IL-1beta 12476.2 pg/ml,1.55
same,"reporter gene assay signal, mean (Figure 3d)",[2]; IL-1beta 24952.5 pg/ml,1.78
same,"reporter gene assay signal, mean (Figure 3d)",[2]; IL-1beta 49905 pg/ml,1.85
same,"reporter gene assay signal, mean (Figure 3d)",[3]; IL-1alpha 3.04596 pg/ml,0.08
same,"reporter gene assay signal, mean (Figure 3d)",[3]; IL-1alpha 6.09192 pg/ml,0.12
same,"reporter gene assay signal, mean (Figure 3d)",[3]; IL-1alpha 12.1838 pg/ml,0.19
same,"reporter gene assay signal, mean (Figure 3d)",[3]; IL-1alpha 24.3677 pg/ml,0.36
same,"reporter gene assay signal, mean (Figure 3d)",[3]; IL-1alpha 48.7353 pg/ml,0.66
same,"reporter gene assay signal, mean (Figure 3d)",[3]; IL-1alpha 97.4707 pg/ml,1.07
same,"reporter gene assay signal, mean (Figure 3d)",[3]; IL-1alpha 194.941 pg/ml,1.44
same,"reporter gene assay signal, mean (Figure 3d)",[3]; IL-1alpha 389.883 pg/ml,1.69
same,"reporter gene assay signal, mean (Figure 3d)",[3]; IL-1alpha 779.766 pg/ml,1.8
same,"reporter gene assay signal, mean (Figure 3d)",[3]; IL-1alpha 1559.53 pg/ml,1.86
same,"reporter gene assay signal, mean (Figure 3d)",[3]; IL-1alpha 3119.06 pg/ml,1.88
same,"reporter gene assay signal, mean (Figure 3d)",[3]; IL-1alpha 6238.12 pg/ml,1.91
same,"reporter gene assay signal, mean (Figure 3d)",[3]; IL-1alpha 12476.2 pg/ml,1.92
same,"reporter gene assay signal, mean (Figure 3d)",[3]; IL-1alpha 24952.5 pg/ml,2
same,"reporter gene assay signal, mean (Figure 3d)",[3]; IL-1alpha 49905 pg/ml,1.98
